Measured values: US5561113A, “New pseudopeptide compounds of neurokinins” (priority 1994, dated 1996)
Where a name gives a salt, the structure may show the parent alone.

Legend:
[1] = molecular target: T1, human receptors NK1 (Homo sapiens, UniProt P25103); assay: Affinity for the human NK1 receptor on IM-9 lymphoblasts; format: binding; details: human lymphoblasts IM-9 expressing NK1
T1 construct: human lymphoblasts IM-9 specifically expressing the NK1 receptor; endogenous in cells; host or cells: IM-9 human lymphoblasts
Text: (§1) The affinity for the human receptors NK1 and NK2 was studied on the human lymphoblasts IM-9 specifically expressing the NK1 receptor as described by D. G. PAYAN et al. (J. Biol. Chem. 1986, 261, 14321-14329)and on CHO-K1 cells transfected with the NK2 receptor based on the "CellPhect transfection" kit (Pharmacia).

[2] = molecular target: T2, human receptors NK2 (Homo sapiens, UniProt P21452); assay: Affinity for the human NK2 receptor on transfected CHO-K1 cells; format: binding; details: CHO-K1 cells transfected with NK2 receptor
T2 construct: expressed in transfected cells; host or cells: CHO-K1
T2 sequence (P21452 1-398): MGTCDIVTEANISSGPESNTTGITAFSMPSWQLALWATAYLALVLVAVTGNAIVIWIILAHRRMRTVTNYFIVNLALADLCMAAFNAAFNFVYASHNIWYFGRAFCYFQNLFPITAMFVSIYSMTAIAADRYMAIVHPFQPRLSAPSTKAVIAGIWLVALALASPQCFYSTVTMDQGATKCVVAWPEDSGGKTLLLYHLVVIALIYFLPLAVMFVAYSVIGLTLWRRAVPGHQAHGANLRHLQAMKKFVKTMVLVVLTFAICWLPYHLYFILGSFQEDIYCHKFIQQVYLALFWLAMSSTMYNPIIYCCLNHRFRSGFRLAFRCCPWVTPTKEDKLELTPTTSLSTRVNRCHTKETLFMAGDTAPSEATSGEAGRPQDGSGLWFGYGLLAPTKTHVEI
Text: as §1

[3] = system: mice (CD1 male); assay: animal or person; format: in vivo; details: iv
[4] = molecular target: T3, NK2 receptors (Oryctolagus cuniculus, UniProt P79218); assay: Isolated smooth muscle: endothelium-free rabbit pulmonary artery (RPA), NK2-mediated contraction; format: biochemical
T3 construct: three preparations isolated from smooth muscle were used; from tissue; host or cells: endothelium-free rabbit pulmonary artery
T3 sequence (P79218 1-384): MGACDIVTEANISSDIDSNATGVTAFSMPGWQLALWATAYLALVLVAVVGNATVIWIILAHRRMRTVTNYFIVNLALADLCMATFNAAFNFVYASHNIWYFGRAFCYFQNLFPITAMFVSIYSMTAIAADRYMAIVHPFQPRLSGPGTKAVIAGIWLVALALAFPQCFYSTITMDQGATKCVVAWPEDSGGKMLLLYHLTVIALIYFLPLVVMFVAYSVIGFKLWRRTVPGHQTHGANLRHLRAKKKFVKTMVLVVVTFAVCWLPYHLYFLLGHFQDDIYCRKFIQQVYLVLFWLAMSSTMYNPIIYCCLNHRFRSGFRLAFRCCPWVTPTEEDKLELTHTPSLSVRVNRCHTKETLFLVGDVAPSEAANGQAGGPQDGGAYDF
Text: (§2) In order to evaluate the functional activity of the compounds of the invention as antagonists of neurokinins, three preparations isolated from smooth muscle were used: rabbit vena cava (RVC), endothelium-free rabbit pulmonary artery (RPA) and rat portal vein (RatPV) whose contractile responses are respectively mediated by the NK1, NK2 and NK3 receptors as indicated by D. JUKIC et al. (Life Sci. 1991, 49, 1463-1469).
(§3) The antagonistic power of the compounds of the invention was expressed in the form of pA2 as defined by O. […] and H. O. SCHILD (Brit. J. Pharmacol. 1959, 14, 48-58).

[5] = system: male Hartley guinea pigs; assay: Inhibition of bronchoconstriction induced by substance P in guinea pigs; format: in vivo; details: dose of 1 μmol/kg i.v.
Procedure: The study is carried out on male Hartley guinea pigs (Charles River) of a mean weight of 300 to 400 g. […] The animals were pretreated with pyrilamine (1 mg/kg iv), propanolol (1 mg/kg iv). The criterion for assessing the bronchoconstriction is the increase in the tracheal insufflation pressure (TIP) induced by the injection of substance P via the iv route at the dose of 2 nM/kg iv, each animal being its own control. The injection of the test product being carried out relative to the time TO injection of the product. The results are expressed as percentage inhibition of the substance P-induced bronchoconstriction, this percentage being calculated according to the following formula: (ΔTIP before product-ΔTIP after product)/ΔTIP before product (expressed as percentage).

[6] = molecular target: T4, NK1 receptors (Oryctolagus cuniculus, UniProt G1SEI7); assay: Isolated smooth muscle: rabbit vena cava (RVC), NK1-mediated contraction; format: biochemical
T4 construct: three preparations isolated from smooth muscle were used; from tissue; host or cells: rabbit vena cava
Text: as §2, §3

[7] = molecular target: T5, NK3 receptors (Rattus norvegicus, UniProt P16177); assay: Isolated smooth muscle: rat portal vein (RatPV), NK3-mediated contraction; format: biochemical
T5 construct: three preparations isolated from smooth muscle were used; from tissue; host or cells: rat portal vein
T5 sequence (P16177 1-452): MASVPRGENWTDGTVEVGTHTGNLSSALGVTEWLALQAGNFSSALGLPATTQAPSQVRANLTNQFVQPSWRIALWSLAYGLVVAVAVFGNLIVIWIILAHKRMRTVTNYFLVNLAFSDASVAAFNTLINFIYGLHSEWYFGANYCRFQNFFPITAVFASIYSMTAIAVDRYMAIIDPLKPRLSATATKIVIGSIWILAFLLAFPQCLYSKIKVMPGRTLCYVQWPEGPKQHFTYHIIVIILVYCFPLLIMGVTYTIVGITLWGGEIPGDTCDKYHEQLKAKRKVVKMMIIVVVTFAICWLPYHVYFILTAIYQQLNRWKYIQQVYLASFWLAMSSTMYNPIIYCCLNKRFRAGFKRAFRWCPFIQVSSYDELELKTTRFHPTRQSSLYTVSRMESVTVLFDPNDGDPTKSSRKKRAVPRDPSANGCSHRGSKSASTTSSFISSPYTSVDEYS
Text: as §2, §3

[8] = system: peritoneal mast cells of male rats; assay: Mast cell degranulation in vitro (histamine release); format: cell-based; details: rat peritoneal mast cells, 20 min incubation, up to the concentration of 10^-4 M
Procedure: The studies are carried out on peritoneal mast cells of male rats: Sprague-Dawley of mean weight 350 to 400 g and are killed by euthanasia by inhalation of CO2. A peritoneal lavage is carried out with 20 ml of buffer (NaCl 150 mM, KCl 2.7 mM, CaCl2, 0.9 mM, Na2 HPO4, 3 mM, KH2 PO4, 3.5 mM, glucose 5.6 mM, bovine serum albumin 1 mg/ml, pH 6.8).
The lavage liquid is centrifuged at 400 g for 10 min at 4° C. and taken up in a buffer at a density of 2×10^4 mast cells/mi. The compounds are incubated at an increasing concentration for 20 min. The reaction is stopped by placing the tubes on ice and a centrifugation is carried out with 700 g for 10 min at 4° C. The supernatant and the pellet are tested by fluorimetry after condensation with o-phthaldehyde. The histamine released from the cells into the supernatant thus assayed is expressed as percentage of the total histamine content of the cells.

[9] = system: guinea pigs; assay: Inhibition of plasma extravasation induced by substance P in guinea pig bladder; format: in vivo; details: 0.1 mg/kg intravenously 5 minutes before substance P (1 μg/kg iv)
Procedure: The effect of the compounds on plasma extravasation caused by intravenous injection of substance P (1 μg/kg) in guinea pigs was evaluated on the bladder, according to the method described for rats by C. GARRET et al. (Proc. Natl. Acad. Sci., USA 1991, 88, 10208-20212). Vesical accumulation of Evans blue injected IV at the same time as substance P and 10 minutes before sacrificing, was quantified by spectrophotometry after extraction of the colorant with acetone. The inhibitory activity of the compounds administered intravenously 5 minutes before substance P was expressed as % inhibition compared with a control batch (8 animals per batch).

T1 sequence (P25103 whole entry): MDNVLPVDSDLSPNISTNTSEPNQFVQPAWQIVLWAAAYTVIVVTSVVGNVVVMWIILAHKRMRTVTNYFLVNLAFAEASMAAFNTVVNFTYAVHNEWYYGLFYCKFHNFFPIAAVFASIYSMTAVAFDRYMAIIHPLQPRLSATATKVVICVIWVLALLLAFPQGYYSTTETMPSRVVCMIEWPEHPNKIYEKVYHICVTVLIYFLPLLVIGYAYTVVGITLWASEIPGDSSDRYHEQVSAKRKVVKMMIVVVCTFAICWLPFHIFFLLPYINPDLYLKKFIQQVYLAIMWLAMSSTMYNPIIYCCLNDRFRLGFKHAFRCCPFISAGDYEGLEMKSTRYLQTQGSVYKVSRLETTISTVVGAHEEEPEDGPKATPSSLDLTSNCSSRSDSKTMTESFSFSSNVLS
T4 sequence (G1SEI7 1-407): as the sequence (P25103 whole entry) above, with S12F, N189D, P369A, D371E, T376N, C386G, D391N, S402Y, V405M counted along it

SMILES | Ki [1] | Ki [2] | ED50 ([3]; Mus musculus, read-out: ED50 (dose which increases the reaction time by 50%)) | NK2 (APL) pA2 [4] | % Inhibition of substance P-induced bronchoconstriction [5] | NK1 (VCL) pA2 [6] | NK3 (VPR) pA2 [7] | ED50 (dose which increases the reaction time by 50%) ([3]; mouse, in vivo) | Mast cell degranulation (histamine release) [8] | % inhibition of substance P-induced plasma extravasation (bladder) [9]
COc1ccc(CC(NC(=O)C2CC(O)CN2C(=O)c2cn(CCCCc3nn[nH]n3)c3ccccc23)C(=O)N(C)Cc2ccccc2)cc1OC (stereo not shown) [Example 10, {1-[4-(1H-tetrazol-5-yl)butyl]indol-3-yl}carbonyl-Hyp-(3,4-dimethoxy)Phe-NMeBzl, potassium salt] | 180 nM | > 10000 nM |  |  |  |  |  |  |  | 
CN1CC[C@]23c4c5ccc(O)c4O[C@H]2[C@@H](O)C=C[C@H]3[C@H]1C5 [morphine, reference compound] |  |  | 0.3 mg/kg |  |  |  |  |  |  | 
CN(Cc1ccccc1)C(=O)C(CC1CCCCC1)NC(=O)C1CC(O)CN1C(=O)c1cn(CCCCc2nn[nH]n2)c2ccccc12 (stereo not drawn) [Example 11, {1-[4-(1H-tetrazol-5-yl)butyl]indol-3-yl}carbonyl-Hyp-Cha-NMeBzl, potassium salt] | 52 nM | > 1000 nM |  |  |  |  |  |  |  | 
CN(Cc1ccccc1)C(=O)C(Cc1ccc2ccccc2c1)NC(=O)C1CC(O)CN1C(=O)c1cn(CCCc2nn[n-]n2)c2ccccc12.[K+] (stereo not drawn) [Example 6, [1-[3-(1H-tetrazol-5-yl)propyl]indol-3-yl}carbonyl-Hyp-Nal-NMeBzl, potassium salt] | 1.2 nM | > 1000 nM |  | 5.20 | 60% | 8.46 |  |  |  | 
CN(Cc1ccccc1)C(=O)C(Cc1ccc2c(c1)CCCC2)NC(=O)C1CC(O)CN1C(=O)c1cn(CCCCc2nn[n-]n2)c2ccccc12.[K+] (stereo not drawn) [Example 2, {1-[4-(1H-tetrazol-5-yl)butyl]indol-3-yl}carbonyl-Hyp-Tna-NMeBzl, potassiu m salt] | 14 nM | 3600 nM |  | 6.47 |  | 8.17 | 5.87 |  |  | 
CN(Cc1ccccc1)C(=O)C(Cc1ccc2ccccc2c1)NC(=O)C1CC(O)CN1C(=O)c1cn(CCCCCc2nn[n-]n2)c2ccccc12.[K+] (stereo not drawn) [Example 7, {1-[5-(1H-tetrazol-5-yl)pentyl]indol-3-yl}carbonyl-Hyp-Nal-NMeBzl, potassium salt] | 5.9 nM | 10000 nM |  |  | 58% | 7.88 |  |  |  | 
CN(Cc1ccccc1)C(=O)C(CC1CCc2ccccc2C1)NC(=O)C1CC(O)CN1C(=O)c1cn(CCCCc2nn[n-]n2)c2ccccc12.[K+] (mixture of isomers) [Example 3, {1-[4-(1H-tetrazol-5-yl)butyl]indol-3-yl}carbonyl-Hyp-Thn-NMeBzl, potassiu m salt] | 14 nM | 1400 nM |  | 5.87 |  | 7.87 | 5.87 |  |  | 
CN(Cc1ccccc1)C(=O)C(Cc1ccc2ccccc2c1)NC(=O)C1CC(O)CN1C(=O)c1cn(CCCCc2nn[n-]n2)c2ccccc12.[K+] (stereo not drawn) [Example 1, {1-[4-(1H-tetrazol-5-yl)butyl]indol-3-yl}carbonyl-Hyp-Nal-NMeBzl, potassiu m salt] |  | 2400 nM |  | 5.57 | 95% | 9.57 | 4.96 | 0.018 mg/kg | does not cause mast cell degranulation | 56%
CN(Cc1ccccc1)C(=O)C(Cc1cccs1)NC(=O)C1CC(O)CN1C(=O)c1cn(CCCCc2nn[nH]n2)c2ccccc12 (stereo not drawn) [Example 8, {1-[4-(1H-tetrazol-5-yl)butyl]indol-3-yl}carbonyl-Hyp-Thi-NMeBzl, potassiu m salt] | 110 nM | > 1000 nM |  |  |  |  |  |  |  | 
CN(Cc1ccccc1)C(=O)C(Cc1ccc2ccccc2c1)NC(=O)C1CC(O)CN1C(=O)c1cn(Cc2nn[n-]n2)c2ccccc12.[K+] (stereo not drawn) [Example 4, {1-[(1H-tetrazol-5-yl)methyl]indol-3-yl}carbonyl-Hyp-Nal-NMeBzl,potassium salt] | 0.78 nM | > 1000 nM |  |  | 61% | 8.14 | 5.84 |  |  | 
CN(Cc1ccccc1)C(=O)C(Cc1ccc(Cl)cc1)NC(=O)C1CC(O)CN1C(=O)c1cn(CCCCc2nn[nH]n2)c2ccccc12 (stereo not shown) [Example 9, {1-[4-(1H-tetrazol-5-yl)butyl]indol-3-yl}carbonyl-Hyp-(4-chloro)Phe-NMeBz potassium salt] | 22 nM | 3900 nM |  |  |  |  |  |  |  | 
CN(Cc1ccccc1)C(=O)C(Cc1ccc2ccccc2c1)NC(=O)C1CC(O)CN1C(=O)c1cn(CCc2nn[nH]n2)c2ccccc12 (stereo not drawn) [Example 5, {1-[2-(1H-tetrazol-5-yl)ethyl]indol-3-yl}carbonyl-Hyp-Nal-NMeBzl, potassiu m salt] | 0.63 nM | > 10000 nM |  |  |  |  |  |  |  | 
